Data reported in patent US9187472B2 (AbbVie Inc., priority 2012, dated 2015).

Test system: PC3 cells
Test: NAMPT Cell Proliferation Assay
Type: cell-based
Settings: Homo sapiens, PC-3, 120 h, 5 days incubation, cell viability by Cell Titer Glo
In short: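 Cell Titer Glo viability after 5-day exposure (37° C, 5% CO2); PC3, 500 cells/well, RPMI + 10% heat-inactivated FBS, overnight attachment before dosing. Dose range 10 μM to 1×10^−5 μM, 10-fold steps. IC50 = sigmoidal fit of % inhibition.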

SMILES: O=C(NCc1ccn2ccnc2c1)c1ccc(C2CCN(C(=O)c3nc4ccccc4s3)CC2)cc1 [Example 1001, 4-[1-(1,3-benzothiazol-2-ylcarbonyl)piperidin-4-yl]-N-(imidazo[1,2-a]pyridin-7-ylmethyl)benzamide]
- IC50: 95.3 nM

SMILES: CCc1cc(C(=O)N2CCC(c3ccc(C(=O)NCc4ccn5ccnc5c4)cc3)CC2)on1 [Example 1002, 4-{1-[(3-ethyl-1,2-oxazol-5-yl)carbonyl]piperidin-4-yl}-N-(imidazo[1,2-a]pyridin-7-ylmethyl)benzamide]
- IC50: 154 nM

SMILES: C=CCn1nc(C)cc1C(=O)N1CCC(c2ccc(C(=O)NCc3ccn4ccnc4c3)cc2)CC1 [Example 1003, N-(imidazo[1,2-a]pyridin-7-ylmethyl)-4-(1-{[3-methyl-1-(prop-2-en-1-yl)-1H-pyrazol-5-yl]carbonyl}piperidin-4-yl)benzamide]
- IC50: 4.96 nM

SMILES: O=C(NCc1ccn2ccnc2c1)c1ccc(C2CCN(C(=O)c3ccc4snnc4c3)CC2)cc1 [Example 1004, 4-[1-(1,2,3-benzothiadiazol-5-ylcarbonyl)piperidin-4-yl]-N-(imidazo[1,2-a]pyridin-7-ylmethyl)benzamide]
- IC50: 56.7 nM

SMILES: CCc1nc(C(=O)N2CCC(c3ccc(C(=O)NCc4ccn5ccnc5c4)cc3)CC2)cs1 [Example 1005, 4-{1-[(2-ethyl-1,3-thiazol-4-yl)carbonyl]piperidin-4-yl}-N-(imidazo[1,2-a]pyridin-7-ylmethyl)benzamide]
- IC50: 74.7 nM

SMILES: CC(C)c1nccc(C(=O)N2CCC(c3ccc(C(=O)NCc4ccn5ccnc5c4)cc3)CC2)n1 [Example 1006, N-(imidazo[1,2-a]pyridin-7-ylmethyl)-4-(1-{[2-(propan-2-yl)pyrimidin-4-yl]carbonyl}piperidin-4-yl)benzamide]
- IC50: 73.7 nM

SMILES: Cc1cc(C(=O)N2CCC(c3ccc(C(=O)NCc4ccn5ccnc5c4)cc3)CC2)cnc1C [Example 1007, 4-{1-[(5,6-dimethylpyridin-3-yl)carbonyl]piperidin-4-yl}-N-(imidazo[1,2-a]pyridin-7-ylmethyl)benzamide]
- IC50: 37.3 nM

SMILES: CC(C)C1CC(C(=O)N2CCC(c3ccc(C(=O)NCc4ccn5ccnc5c4)cc3)CC2)CCO1 (stereo not drawn) [Example 1008, N-(imidazo[1,2-a]pyridin-7-ylmethyl)-4-(1-{[2-(propan-2-yl)tetrahydro-2H-pyran-4-yl]carbonyl}piperidin-4-yl)benzamide]
- IC50: 2.94 nM

SMILES: COc1cccc(C)c1C(=O)N1CCC(c2ccc(C(=O)NCc3ccn4ccnc4c3)cc2)CC1 [Example 1009, N-(imidazo[1,2-a]pyridin-7-ylmethyl)-4-[1-(2-methoxy-6-methylbenzoyl)piperidin-4-yl]benzamide]
- IC50: 1.2 nM

SMILES: O=C(NCc1ccn2ccnc2c1)c1ccc(C2CCN(C(=O)c3cccc4ncsc34)CC2)cc1 [Example 1010, 4-[1-(1,3-benzothiazol-7-ylcarbonyl)piperidin-4-yl]-N-(imidazo[1,2-a]pyridin-7-ylmethyl)benzamide]
- IC50: 5.8 nM

SMILES: CC(C)n1ccc(C(=O)N2CCC(c3ccc(NC(=O)NCc4ccn5ccnc5c4)cc3)CC2)n1 [Example 1011, 1-(imidazo[1,2-a]pyridin-7-ylmethyl)-3-[4-(1-{[1-(propan-2-yl)-1H-pyrazol-3-yl]carbonyl}piperidin-4-yl)phenyl]urea]
- IC50: 1.97 nM

SMILES: O=C(NCc1ccn2ccnc2c1)Nc1ccc(C2CCN(C(=O)[C@@H]3COc4ccccc4O3)CC2)cc1 [Example 1012, 1-(4-{1-[(2S)-2,3-dihydro-1,4-benzodioxin-2-ylcarbonyl]piperidin-4-yl}phenyl)-3-(imidazo[1,2-a]pyridin-7-ylmethyl)urea]
- IC50: 8.36 nM

SMILES: Cn1nc(C2CC2)cc1C(=O)N1CCC(c2ccc(NC(=O)NCc3ccn4ccnc4c3)cc2)CC1 [Example 1013, 1-(4-{1-[(3-cyclopropyl-1-methyl-1H-pyrazol-5-yl)carbonyl]piperidin-4-yl}phenyl)-3-(imidazo[1,2-a]pyridin-7-ylmethyl)urea]
- IC50: 2.32 nM

SMILES: Cn1nc2c(c1C(=O)N1CCC(c3ccc(NC(=O)NCc4ccn5ccnc5c4)cc3)CC1)CCCC2 [Example 1014, 1-(imidazo[1,2-a]pyridin-7-ylmethyl)-3-(4-{1-[(2-methyl-4,5,6,7-tetrahydro-2H-indazol-3-yl)carbonyl]piperidin-4-yl}phenyl)urea]
- IC50: 2.07 nM

SMILES: O=C(NCc1ccn2ccnc2c1)Nc1ccc(C2CCN(C(=O)c3onc4c3CCCC4)CC2)cc1 [Example 1015, 1-(imidazo[1,2-a]pyridin-7-ylmethyl)-3-{4-[1-(4,5,6,7-tetrahydro-2,1-benzoxazol-3-ylcarbonyl)piperidin-4-yl]phenyl}urea]
- IC50: 1.68 nM

SMILES: O=C(NCc1ccn2ccnc2c1)Nc1ccc(C2CCN(C(=O)c3cc(Cl)ncc3F)CC2)cc1 [Example 1016, 1-(4-{1-[(2-chloro-5-fluoropyridin-4-yl)carbonyl]piperidin-4-yl}phenyl)-3-(imidazo[1,2-a]pyridin-7-ylmethyl)urea]
- IC50: 2.19 nM

SMILES: Cc1ccc(F)c(C(=O)N2CCC(c3ccc(NC(=O)NCc4ccn5ccnc5c4)cc3)CC2)n1 [Example 1017, 1-(4-{1-[(3-fluoro-6-methylpyridin-2-yl)carbonyl]piperidin-4-yl}phenyl)-3-(imidazo[1,2-a]pyridin-7-ylmethyl)urea]
- IC50: 2.29 nM

SMILES: O=C(NCc1ccn2ccnc2c1)Nc1ccc(C2CCN(C(=O)c3ccnc(Cl)c3F)CC2)cc1 [Example 1018, 1-(4-{1-[(2-chloro-3-fluoropyridin-4-yl)carbonyl]piperidin-4-yl}phenyl)-3-(imidazo[1,2-a]pyridin-7-ylmethyl)urea]
- IC50: 1.64 nM

SMILES: O=C(NCc1ccn2ccnc2c1)Nc1ccc(C2CCN(C(=O)c3ncccc3Cl)CC2)cc1 [Example 1019, 1-(4-{1-[(3-chloropyridin-2-yl)carbonyl]piperidin-4-yl}phenyl)-3-(imidazo[1,2-a]pyridin-7-ylmethyl)urea]
- IC50: 1.98 nM

SMILES: O=C(NCc1ccn2ccnc2c1)Nc1ccc(C2CCN(C(=O)C3(c4ccccn4)CC3)CC2)cc1 [Example 1020, 1-(imidazo[1,2-a]pyridin-7-ylmethyl)-3-[4-(1-{[1-(pyridin-2-yl)cyclopropyl]carbonyl}piperidin-4-yl)phenyl]urea]
- IC50: 0.901 nM

SMILES: O=C(NCc1ccn2ccnc2c1)Nc1ccc(C2CCN(C(=O)c3ccn(C4CCCC4)n3)CC2)cc1 [Example 1021, 1-(4-{1-[(1-cyclopentyl-1H-pyrazol-3-yl)carbonyl]piperidin-4-yl}phenyl)-3-(imidazo[1,2-a]pyridin-7-ylmethyl)urea]
- IC50: 1.11 nM

SMILES: O=C(NCc1ccn2ccnc2c1)Nc1ccc(C2CCN(C(=O)c3ccnn3C(F)F)CC2)cc1 [Example 1022, 1-[4-(1-{[1-(difluoromethyl)-1H-pyrazol-5-yl]carbonyl}piperidin-4-yl)phenyl]-3-(imidazo[1,2-a]pyridin-7-ylmethyl)urea]
- IC50: 2.93 nM

SMILES: O=C(NCc1ccn2ccnc2c1)Nc1ccc(C2CCN(C(=O)C3COc4ccccc4O3)CC2)cc1 (stereo not drawn) [Example 1023, 1-{4-[1-(2,3-dihydro-1,4-benzodioxin-2-ylcarbonyl)piperidin-4-yl]phenyl}-3-(imidazo[1,2-a]pyridin-7-ylmethyl)urea]
- IC50: 6.87 nM

SMILES: O=C(NCc1ccn2ccnc2c1)Nc1ccc(C2CCN(C(=O)C3Cc4ccccc4O3)CC2)cc1 (stereo not drawn) [Example 1024, 1-{4-[1-(2,3-dihydro-1-benzofuran-2-ylcarbonyl)piperidin-4-yl]phenyl}-3-(imidazo[1,2-a]pyridin-7-ylmethyl)urea]
- IC50: 3.52 nM
